This note sets out measurements from patent US9629830B2, “EphA4 inhibitors as neuroprotective agents” (The Hong Kong University of Science and Technology, priority 2013, dated 2017).

Entries after “also recorded” stand apart in the source; their conditions may differ.

Assay [1] addresses T1, extracellular domain of EphB2 (Homo sapiens, UniProt P29323).
T1 construct: purchased R&D Systems
T1 sequence (P29323 19-543 limits assumed): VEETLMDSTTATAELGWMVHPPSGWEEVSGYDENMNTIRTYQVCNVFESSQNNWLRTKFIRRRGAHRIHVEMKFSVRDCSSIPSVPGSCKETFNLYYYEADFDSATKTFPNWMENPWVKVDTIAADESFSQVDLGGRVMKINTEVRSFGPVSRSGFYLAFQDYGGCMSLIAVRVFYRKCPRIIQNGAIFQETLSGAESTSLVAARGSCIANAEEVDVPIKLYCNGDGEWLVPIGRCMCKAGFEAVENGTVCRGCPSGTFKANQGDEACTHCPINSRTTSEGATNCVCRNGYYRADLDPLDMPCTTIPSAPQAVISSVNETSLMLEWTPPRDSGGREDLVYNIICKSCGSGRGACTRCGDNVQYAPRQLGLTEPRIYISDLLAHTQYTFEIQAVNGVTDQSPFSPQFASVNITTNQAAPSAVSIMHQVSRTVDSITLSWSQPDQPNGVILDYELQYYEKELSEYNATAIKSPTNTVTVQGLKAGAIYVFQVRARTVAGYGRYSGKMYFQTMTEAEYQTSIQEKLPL
As to the kind of experiment: In vitro pull-down of recombinant EphB2-Fc with biotinylated Rhy on streptavidin beads. Type of assay: binding. As to conditions: western blot. As for the experimental part: (§1) For the pull-down analysis, Bio-Rhy was bound to streptavidin magnetic beads for 1 h, the beads was then incubated with recombinant EphA4-Fc or EphB2-Fc in the presence of 0.5% BSA for 1 h. After incubation, the beads were washed 4 times with DPBS and the presence of Eph in the complex was determined by western blot analysis.

Assay [2] concerns the target T2, extracellular domain of EphA4 (Homo sapiens, UniProt P54764).
T2 construct: purchased R&D Systems
As to the kind of experiment: In vitro pull-down of recombinant EphA4-Fc with biotinylated Rhy on streptavidin beads. Type of assay: binding. As to conditions: western blot. Here is the method: as §1

For a further assay, the system named is APP/PS1 mutant mice. Briefly: HFS-induced hippocampal LTP in WT and APP/PS1 mice after in vivo treatment. Set-up: species or system mouse. As to conditions: Rhy oral 50 mg·kg−1·day−1 for 3 weeks. An excerpt:
APP/PS1 double-transgenic mice were obtained from Jackson Laboratory (B6C3-Tg[APPswe, PSEN1dE9]85Dbo/J)^66. These mice were generated by incorporating a human/murine APP construct bearing the Swedish double mutation and the exon-9-deleted PSEN1 mutation (APPswe+PSEN1/dE9). APP transgenic mice (Tg2576) expressing a double mutant of human AβPP (Lys^670→Asn^670, Met^671→Leu^671) were also used^31. Both sexes were used for experiments, and all mice used in this study were produced by the Animal Care Facility of The Hong Kong University of Science and Technology. The genotype was confirmed by polymerase chain reaction analysis of tail biopsies. Four to five mice of the same sex were housed in a cage with food and water ad libitum with a 12-hour light/dark cycle.
To investigate the effect of blocking EphA4 signaling by KYL peptide in AD mice, 4-5-month-old AD transgenic mice were implanted with Alzet mini-osmotic pumps, model 1004, pumping its contents at 0.11 μL/h for 28 days. Pumps were loaded with either 0.23 μg/μL KYL peptide (17 μg) or vehicle solvent in artificial cerebrospinal fluid (CSF). The mini-osmotic pumps were adjusted intracerebroventricularly in the right hemisphere. EphA4 in the CA1 regions of APP/PS1 mice was knocked down by injecting vesicular stomatitis virus glycoprotein G-pseudotyped lentiviral particles with pFUGW-shEphA4 bilaterally into the corresponding regions as described previously^58.
For LTP recordings, mouse brains were immediately dissected after sacrifice and soaked in ice-cold 95% O2/5% CO2 (aCSF)^58. Brain slices (300 μm thick) were prepared using a vibrating tissue slicer (HM650V; Thermo), and soaked in oxygenated buffer for 2 h at 32° C. […] For treatment with EphA4 inhibitors, the slices were pretreated with peptides or chemicals for 1 h before application of Aβ. fEPSPs were recorded using a MED64 multichannel recording system, and the data were collected from the dendritic layer of area CA1 at a sampling rate of 10 kHz. For each slice, the baseline stimulus intensity was set at the level that elicited ˜50% of the maximum fEPSP response determined according to the input-output curve. […] The magnitude of LTP was quantified as a percentage change in the fEPSP slope (10%-90%) taken during the 60-min interval after LTP induction.
WT and APP/PS1 mutant (Tg) mice were orally administered with corylin ([…]) by daily gavage for 3-4 weeks prior to LTP measurements. LTP induced by 3 trains of HFS (100 Hz for 1 s delivered 30 s apart) in the CA1 region of the SC pathway of the hippocampus was measured. The magnitude of LTP was quantified as the percentage change in the fEPSP slope (10-90%) taken during the 60-min interval after LTP induction.

The next assay concerns APP/PS1 mice. Briefly: Adult neurogenesis (Ki67 staining) in hippocampus of APP/PS1 mice. Type of assay: in vivo, mouse. As to conditions: Rhy oral 50 mg/kg for over three months, versus control-treated mice. An excerpt:
The mouse brains were sectioned and stained with Ki67 antibody, which labelled all cells in the cell cycle, but not those differentiated progenitors and newly born neurons.

The subject of assay [3] is Aβ-induced impairment of hippocampal LTP. As to the kind of experiment: HFS-induced LTP (fEPSP slope) in acute hippocampal slices treated with Aβ. Type of assay: cell-based, mouse. As for the experimental part:
Oligomeric Aβ (Aβ) was prepared as described previously^59,60. Briefly, 0.5 mg monomeric Aβ1-42 was dissolved in 22.2 μL dry DMSO and then diluted in ice-cold phenol-red free F-12 medium to yield a final Aβ concentration of 100 μM. The Aβ solution was incubated at 4° C. for 24 h and then centrifuged at 14,000×g for 10 min. The supernatant was frozen in liquid nitrogen and stored at −20° C. for up to 1 month. Unless specified, cultured neurons or hippocampal slices were typically treated with Aβ at 500 nM.
For LTP recordings, mouse brains were immediately dissected after sacrifice and soaked in ice-cold 95% O2/5% CO2 (aCSF)^58. Brain slices (300 μm thick) were prepared using a vibrating tissue slicer (HM650V; Thermo), and soaked in oxygenated buffer for 2 h at 32° C. The hippocampal regions were resected and placed at the center of a MED-P210A probe (Panasonic International Inc) with 64 embedded recording electrodes. The slices were then perfused with Aβ at 500 nM in oxygenated aCSF for 2 h before LTP induction^70. For treatment with EphA4 inhibitors, the slices were pretreated with peptides or chemicals for 1 h before application of Aβ. fEPSPs were recorded using a MED64 multichannel recording system, and the data were collected from the dendritic layer of area CA1 at a sampling rate of 10 kHz. For each slice, the baseline stimulus intensity was set at the level that elicited ˜50% of the maximum fEPSP response determined according to the input-output curve. LTP was induced by 3 trains of HFS (100 Hz, 1 s, delivered 30 s apart). The magnitude of LTP was quantified as a percentage change in the fEPSP slope (10%-90%) taken during the 60-min interval after LTP induction.

Assay [4] deals with EphA4-dependent growth cone collapse in hippocampal neurons. Briefly: EphA4-dependent (ephrin-A1-stimulated) growth cone collapse assay. Type of assay: cell-based, rat. As to conditions: cultured hippocampal neurons. Here is the method:
Ephrin-A1-Fc was pre-clustered with goat anti-human Fc antibody (1:4.5)^24 and incubated at room temperature for 60 min before use. The growth cone collapse assay was performed in hippocampal neurons with ephrin-A1 0.1 μg/mL as described previously^61.
For EphA4 clustering, neurons were stained with anti-EphA4 and anti-Tau-1 antibodies. For the growth cone collapse assay, neurons were stained with Alexa Fluor 555-conjugated phalloidin (Molecular Probes) for filamentous actin and anti-Tau-1 antibody for axons. Collapsed growth cones were scored in a double-blinded manner. The experiments were repeated at least 3 times, and >50 neurons were analyzed for each experiment. Data are presented as mean±SEM.
To screen for small molecule EphA4 inhibitors, the inventors performed a molecular docking analysis using a small molecule library. […] Their ability in inhibiting EphA4 inhibiting the EphA4-dependent growth cone collapse using cultured hippocampal neurons was performed.

T2 sequence (P54764 20-547 limits assumed): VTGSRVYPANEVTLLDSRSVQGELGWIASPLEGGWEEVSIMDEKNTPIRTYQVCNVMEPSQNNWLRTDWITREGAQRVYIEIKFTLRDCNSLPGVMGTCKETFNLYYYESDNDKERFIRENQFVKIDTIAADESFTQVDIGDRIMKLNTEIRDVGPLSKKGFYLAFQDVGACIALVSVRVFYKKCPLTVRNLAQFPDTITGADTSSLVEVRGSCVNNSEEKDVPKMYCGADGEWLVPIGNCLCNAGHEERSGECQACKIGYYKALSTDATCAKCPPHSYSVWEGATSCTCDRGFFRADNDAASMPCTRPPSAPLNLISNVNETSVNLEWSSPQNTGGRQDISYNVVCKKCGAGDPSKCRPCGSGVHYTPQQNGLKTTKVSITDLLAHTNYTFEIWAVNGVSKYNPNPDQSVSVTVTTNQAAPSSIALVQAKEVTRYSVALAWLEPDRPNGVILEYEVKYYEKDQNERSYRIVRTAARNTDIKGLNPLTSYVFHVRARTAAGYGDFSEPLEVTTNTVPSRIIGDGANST

`CC[C@H]1CN2CC[C@]3(C(=O)Nc4ccccc43)[C@@H]2C[C@@H]1/C(=C\OC)C(=O)OC` [Rhy, methyl (7β,16E,20α)-16-(methoxymethylene)-2-oxocorynoxan-17-oate]: in assay [1], the “binding to the extracellular domain of EphB2 (pull-down, words)” value is reported as “not that of EphB2”. Further, the “binding to the extracellular domain of EphA4 (pull-down, words)” value in assay [2] is recorded as “binds the extracellular domain of EphA4”. The “mean fEPSP slope, last 10 min after LTP induction” value with APP/PS1 mutant mice (APP/PS1 (Tg) mice, Tg control 147.6±3.5%) was determined as 198.1±8.9%; in the assay on APP/PS1 mutant mice (WT mice, WT control 194.0±7.0%), 180.5±7.7%; in assay [3] (Rhy 30 μM + Aβ, Aβ alone 131.1±3.9%) it was 174.1±9.8%; in assay [3] (Rhy 30 μM alone, control 172.7±7.5%), 168.1±6.0%. Further, in the assay with APP/PS1 mice, the “number of Ki-67+ neural progenitors in dentate gyrus” value is recorded as “increased the number of Ki-67+ neural progenitors”. Moreover, the “ephrin-A1-stimulated growth cone collapse” value in assay [4] is given as “reduced; also recorded: inhibited ephrin-A1-stimulated growth cone collapse”.
